In PubChem BioAssay AID1963845 (Molecular Pharmacology Branch, DTP, NCI, 2024):
Several values for one entry are separate records, joined by “and”; a condition that tells them apart may be missing. Equal entries are not always repeated.

Tested on: 429239-143-T-J1-PDC complex spheroid viability
Assay: Anticancer human tumor 429239-143-T-J1-PDC patient-derived small cell lung carcinoma cell line growth inhibition [POLQ]
Conditions: for viability, T/C: stronger effect = lower value
Description: Multicellular complex tumor spheroid response to Polymerase (POL) inhibitors (novobiocin, ART-558, RP6685) in combination with a variety of drugs and investigational agents in selected tumor cell lines
The POL inhibitors (novobiocin, ART-558, and RP6685) were evaluated both individually and in combination with standard of care and investigational anticancer small molecules within a complex spheroid model of solid tumors. . Complex spheroids include a stromal component modeled by human endothelial cells (HUVEC) and fibroblasts modeled by human mesenchymal stem cells (MSCs). The concentration ranges selected for each drug and investigational agent were based upon clinically achievable concentrations if the clinical Cmax of the agent was known.
Compounds. The drugs and investigational agents: novobiocin (NSC847541), ART-558 (NSC835418), RP-6685 (NSC848927), peposertib (NSC802822), ceralasertib (NSC780249), elimusertib (NSC800525), camonsertib (NSC841442), AZD-1390 (NSC803789), olaparib (NSC753686), talazoparib (NSC767125), rucaparib (NSC756644), sotorasib (NSC818433), MRTX-1133 (NSC836407), SN-38 (NSC673596), topotecan (NSC609699), epotoside (NSC141540), doxorubicin (NSC123127), gemcitabine (NSC613327), 5-fluorouracil (NSC19893), paclitaxel (NSC125973), vemurafenib (NSC761431), MSA-2 (NSC828583), SN-011 (NSC837082), adavosertib (NSC754352), prexasertib (NSC758257), carboplatin (NSC241240) and oxaliplatin (NSC266046), were obtained from the National Cancer Institute (NCI) Developmental Therapeutics Program Chemical Repository (21). The FDA-approved anticancer drug set is available from the Developmental Therapeutics Program at https://dtp.cancer.gov/organization/dscb/obtaining/. […] The stock solutions were prepared in dimethyl sulfoxide (DMSO, Sigma-Aldrich, St. Louis, MO, cat. D2650), except for the platinum compounds which were prepared in saline (Quality Biological, Gaithersburg, MD, cat. 114-055-101), at 800-fold the tested concentration and stored at -70 degrees C prior to their use. All drugs and investigational agents were tested over a range starting from a high concentration at or near the clinical Cmax and decreasing in half-log increments. If the clinical Cmax for an agent had not been determined, the highest concentration tested was 10 microM, except for SN-38, which was tested at a high concentration of 1 microM.
Cell Culture. All cells were maintained in an incubator at 37 degrees C and 5% CO2 with 95% humidity. The PDC lines were cultured according to standard operating procedures established by the NCI PDMR (https://pdmr.cancer.gov). Table 3 of the manuscript, lists the cell lines along with the number of the three cell types plated to form the mct-spheroids and media for tumor cell growth. After thawing, all PDC lines, except 997537-175-T-J1-PDC and 415267-285-R-J2-PDC, were cultured in Matrigel-coated flasks prepared with a working solution of 1X Ham's F-12 nutrient mix, without supplementation (Thermo Fisher Scientific, cat. 11765054), 100 U/mL penicillin-streptomycin (Thermo Fisher Scientific, cat. 15140122), and 2.5% Matrigel (Corning Inc., Corning, NY, cat. 354248) for the first three passages. The two PDC lines 997537-175-T-J1-PDC and 415267-285-R-J2-PDC were cultured on uncoated flasks. The 857933-349-R-J2-PDC line was cultured in 6C/Colon 1B media containing advanced DMEM/F-12 (Thermo Fisher Scientific, cat. 12634028), 10 mM HEPES (Thermo Fisher Scientific, cat. 15630080), 1X GlutaMAX supplement (Thermo Fisher Scientific, cat. 35050061), 0.1 mg/mL primocin (InvivoGen, San Diego, CA, cat. ant-pm-2), 10% defined fetal bovine serum, heat inactivated (HyClone Laboratories Inc., Logan, UT, cat. SH30070.03HI), 50% L-WRN conditioned media (ATCC, cat. CRL-3276), 1.25 mM N-Acetyl-L-cysteine (Sigma-Aldrich, cat. A9165), 10 mM nicotinamide (Sigma-Aldrich, cat. N0636), 1X B-27 supplement (Thermo Fisher Scientific, cat. 17504044), 1X N-2 supplement (Thermo Fisher Scientific, cat. […]

[1] = curve of first compound, second compound 0.0316 µM
[2] = curve of first compound, second compound 0.1 µM
[3] = curve of first compound, second compound 0.316 µM
[4] = curve of first compound, second compound 1 µM
[5] = curve of first compound, second compound 3.16 µM
[6] = curve of first compound, second compound 10 µM
[7] = second compound 0.0316 µM, first compound 0.0316 µM
[8] = second compound 0.0316 µM, first compound 0.1 µM
[9] = second compound 0.0316 µM, first compound 0.316 µM
[10] = second compound 0.0316 µM, first compound 1 µM
[11] = second compound 0.0316 µM, first compound 3.16 µM
[12] = second compound 0.0316 µM, first compound 10 µM
[13] = second compound 0.1 µM, first compound 0.0316 µM
[14] = second compound 0.1 µM, first compound 0.1 µM
[15] = second compound 0.1 µM, first compound 0.316 µM
[16] = second compound 0.1 µM, first compound 1 µM
[17] = second compound 0.1 µM, first compound 3.16 µM
[18] = second compound 0.1 µM, first compound 10 µM
[19] = second compound 0.316 µM, first compound 0.0316 µM
[20] = second compound 0.316 µM, first compound 0.1 µM
[21] = second compound 0.316 µM, first compound 0.316 µM
[22] = second compound 0.316 µM, first compound 1 µM
[23] = second compound 0.316 µM, first compound 3.16 µM
[24] = second compound 0.316 µM, first compound 10 µM
[25] = second compound 1 µM, first compound 0.0316 µM
[26] = second compound 1 µM, first compound 0.1 µM
[27] = second compound 1 µM, first compound 0.316 µM
[28] = second compound 1 µM, first compound 1 µM
[29] = second compound 1 µM, first compound 3.16 µM
[30] = second compound 1 µM, first compound 10 µM
[31] = second compound 3.16 µM, first compound 0.0316 µM
[32] = second compound 3.16 µM, first compound 0.1 µM
[33] = second compound 3.16 µM, first compound 0.316 µM
[34] = second compound 3.16 µM, first compound 1 µM
[35] = second compound 3.16 µM, first compound 3.16 µM
[36] = second compound 3.16 µM, first compound 10 µM
[37] = second compound 10 µM, first compound 0.0316 µM
[38] = second compound 10 µM, first compound 0.1 µM
[39] = second compound 10 µM, first compound 0.316 µM
[40] = second compound 10 µM, first compound 1 µM
[41] = second compound 10 µM, first compound 3.16 µM
[42] = second compound 10 µM, first compound 10 µM
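Further: luminescence signal used as surrogate measure of viable cells; spheroids exposed to compounds for seven days before readout.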
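Wherever viability, T/C is given: 100% = DMSO vehicle control viability as luminescence relative to vehicle.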

CC1COCCN1c1cc(C2(S(C)(=N)=O)CC2)nc(-c2ccnc3[nH]ccc23)n1 (configuration not stated) + Cc1cccc(N(C)C(=O)C2C(O)CCN2c2nc(C)cc(C(F)(F)F)c2C#N)c1
IC50 [1]: 2210 nM
IC50 [2]: 2100 nM
IC50 [3]: 2020 nM
IC50 [4]: 2100 nM
IC50 [5]: 2320 nM
IC50 [6]: 2410 nM
viability, T/C [7]: 108%
viability, T/C [8]: 105%
viability, T/C [9]: 92.9%
viability, T/C [10]: 77.3%
viability, T/C [11]: 37.2%
viability, T/C [12]: 15.9%
viability, T/C [13]: 105%
viability, T/C [14]: 106%
viability, T/C [15]: 96.7%
viability, T/C [16]: 72.9%
viability, T/C [17]: 37.6%
viability, T/C [18]: 16%
viability, T/C [19]: 101%
viability, T/C [20]: 99.6%
viability, T/C [21]: 97.2%
viability, T/C [22]: 73.6%
viability, T/C [23]: 34.9%
viability, T/C [24]: 17.3%
viability, T/C [25]: 91.2%
viability, T/C [26]: 98.9%
viability, T/C [27]: 89.7%
viability, T/C [28]: 75.7%
viability, T/C [29]: 35.8%
viability, T/C [30]: 17.7%
viability, T/C [31]: 96.9%
viability, T/C [32]: 97.6%
viability, T/C [33]: 94.5%
viability, T/C [34]: 71.3%
viability, T/C [35]: 42.6%
viability, T/C [36]: 18.3%
viability, T/C [37]: 105%
viability, T/C [38]: 103%
viability, T/C [39]: 98.4%
viability, T/C [40]: 60.2%
viability, T/C [41]: 50.3%
viability, T/C [42]: 17.8%

COc1cc(C2c3cc4c(cc3C(OC3OC5COC(C)OC5C(O)C3O)C3COC(=O)C23)OCO4)cc(OC)c1O (configuration not stated)
viability, T/C (compound 0.0316 µM): 99.3% and 97.8% and 98.3%
viability, T/C (compound 0.1 µM): 83.6% and 97.1% and 85.7%
viability, T/C (compound 0.316 µM): 67.2% and 76.3% and 51.2%
viability, T/C (compound 1 µM): 21% and 16.1% and 18%
viability, T/C (compound 3.16 µM): 18.4% and 7.9% and 16%
viability, T/C (compound 10 µM): 16.8% and 7.28% and 16.6%
IC50 (curve of compound): 483 nM and 523 nM and 313 nM

COc1cc2cc(C(=O)CCC(=O)O)sc2cc1OC + COC1C(OC(N)=O)C(O)C(Oc2ccc3c(O)c(NC(=O)c4ccc(O)c(CC=C(C)C)c4)c(=O)oc3c2C)OC1(C)C
IC50 [1]: > 10000 nM
IC50 [2]: > 10000 nM
IC50 [3]: > 10000 nM
IC50 [4]: > 10000 nM
IC50 [5]: > 10000 nM
IC50 [6]: > 10000 nM
viability, T/C [7]: 113%
viability, T/C [8]: 95.9%
viability, T/C [9]: 112%
viability, T/C [10]: 105%
viability, T/C [11]: 92.1%
viability, T/C [12]: 92.4%
viability, T/C [13]: 116%
viability, T/C [14]: 104%
viability, T/C [15]: 93.7%
viability, T/C [16]: 100%
viability, T/C [17]: 91.2%
viability, T/C [18]: 92.6%
viability, T/C [19]: 103%
viability, T/C [20]: 99.3%
viability, T/C [21]: 92.6%
viability, T/C [22]: 107%
viability, T/C [23]: 95.1%
viability, T/C [24]: 90.2%
viability, T/C [25]: 96.1%
viability, T/C [26]: 91.1%
viability, T/C [27]: 108%
viability, T/C [28]: 90.9%
viability, T/C [29]: 90.6%
viability, T/C [30]: 102%
viability, T/C [31]: 94.7%
viability, T/C [32]: 112%
viability, T/C [33]: 103%
viability, T/C [34]: 89.4%
viability, T/C [35]: 96%
viability, T/C [36]: 101%
viability, T/C [37]: 95.9%
viability, T/C [38]: 91.7%
viability, T/C [39]: 119%
viability, T/C [40]: 96.6%
viability, T/C [41]: 94.3%
viability, T/C [42]: 95.7%

COc1cccc(OCCCN)c1-c1cc(Nc2cnc(C#N)cn2)n[nH]1
viability, T/C (compound 0.00316 µM): 92% and 99.1% and 90.2%
viability, T/C (compound 0.01 µM): 79.7% and 103% and 100%
viability, T/C (compound 0.0316 µM): 82.9% and 83.9% and 89.2%
viability, T/C (compound 0.1 µM): 39.7% and 73.7% and 77.4%
viability, T/C (compound 0.316 µM): 31% and 56.7% and 51.6%
viability, T/C (compound 1 µM): 23% and 27% and 41.3%
IC50 (curve of compound): 76.2 nM and 390 nM and 384 nM

C#Cc1c(F)ccc2cc(O)cc(-c3ncc4c(N5CC6CCC(C5)N6)nc(OCC56CCCN5CC(F)C6)nc4c3F)c12 (configuration not stated)
viability, T/C (compound 0.0316 µM): 92.4% and 94.3% and 101%
viability, T/C (compound 0.1 µM): 91.3% and 103% and 102%
viability, T/C (compound 0.316 µM): 114% and 102% and 96%
viability, T/C (compound 1 µM): 99% and 112% and 102%
viability, T/C (compound 3.16 µM): 102% and 97.4% and 98.6%
viability, T/C (compound 10 µM): 84.1% and 91.3% and 103%
IC50 (curve of compound): > 10000 nM

O=C(c1cc(Cc2n[nH]c(=O)c3ccccc23)ccc1F)N1CCN(C(=O)C2CC2)CC1
viability, T/C (compound 0.0316 µM): 95.1% and 91.7% and 93.1%
viability, T/C (compound 0.1 µM): 82.3% and 93.9% and 102%
viability, T/C (compound 0.316 µM): 68.2% and 72.8% and 97.3%
viability, T/C (compound 1 µM): 69.8% and 78% and 84.5%
viability, T/C (compound 3.16 µM): 30.4% and 29.6% and 69.6%
viability, T/C (compound 10 µM): 16.1% and 16.5% and 9.45%
IC50 (curve of compound): 1590 nM and 1930 nM and 4520 nM
